Data set [1] is described as follows: Stability study on crystalline forms (temperature, humidity, light). In kind it is physicochemical. Conditions: for Morphological stability: high relative humidity (above 70%). The method, then: Notes: % expressed with reference to material stored at −70° C.
% RH means percentage relative humidity.

The nature of data set [2]: Behaviour of the solid in the presence of water. Conditions: in the presence of water / suspended in distilled water, stirred 24 hours. The format is physicochemical. The method, then: Stability in the presence of water is desirable in a product intended to be formulated in a pharmaceutical composition using a process that brings it into contact with water, such as a wet granulation process used in the preparation of a tablet.
1.5 g of Form 1 of 1-(indole-6-carbonyl-D-phenylglycinyl)-4-(1-methylpiperidin-4-yl)piperazine difumarate was suspended in 10 ml of distilled water and stirred for 24 hours. The suspension thickened after 5-6 hours, but stirring was continued for the remaining time. The suspension was centrifuged to isolate the solid. The solid was washed with cyclohexane and dried at ambient temperature under vacuum.

The nature of data set [3]: Vapor pressure isotherm determination / hygroscopicity. The format is physicochemical. From the text:
The mono hydrochloride salt of 1-(indole-6-carbonyl-D-phenylglycinyl)-4-(1-methylpiperidin-4-yl)piperazine has also been prepared. The monohydrochloride salt was initially obtained as an amorphous solid. This solid was cycled through a vapor pressure isotherm determination, in which the solid initially deliquesced, then dehydrated.
Using a microbalance flow system, the original material was cycled through a vapor pressure isotherm determination, where the material deliquesced, then allowed to deydrate.

Data set [4] deals with Factor Xa (Homo sapiens, UniProt P00742). Put plainly: Factor Xa inhibition. The format is biochemical.
The nature of data set [5]: Oral exposure. In kind it is in vivo.
Setting [6] is: 40° C./75% RH, 7 Days, difumarate.
The mark [7] stands for this setting: 40° C./75% RH, 28 Days, difumarate.

Sequence of Factor Xa (P00742 235-488 limits assumed): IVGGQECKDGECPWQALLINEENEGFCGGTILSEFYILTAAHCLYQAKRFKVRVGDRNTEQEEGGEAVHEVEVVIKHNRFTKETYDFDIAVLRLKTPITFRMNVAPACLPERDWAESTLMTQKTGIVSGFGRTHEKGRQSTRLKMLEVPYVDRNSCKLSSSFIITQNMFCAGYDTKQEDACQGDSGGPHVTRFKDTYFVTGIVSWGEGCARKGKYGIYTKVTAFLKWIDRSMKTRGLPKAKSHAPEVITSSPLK
Sequence of Factor Xa (P00742 41-179 partner limits assumed): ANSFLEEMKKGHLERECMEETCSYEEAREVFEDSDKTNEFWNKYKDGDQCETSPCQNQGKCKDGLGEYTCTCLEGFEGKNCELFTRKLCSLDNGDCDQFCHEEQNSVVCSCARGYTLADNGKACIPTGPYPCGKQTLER

In the case of `CN1CCC(N2CCN(C(=O)[C@H](NC(=O)c3ccc4cc[nH]c4c3)c3ccccc3)CC2)CC1.O=C(O)/C=C/C(=O)O.O=C(O)/C=C/C(=O)O` [Form 1, 1-(indole-6-carbonyl-D-phenylglycinyl)-4-(1-methylpiperidin-4-yl)piperazine difumarate], the “Stability study, % expressed with reference to material stored at −70° C.” value (“Stability study, % expressed” for short) in data set [1] (40° C., 7 Days) turned out to be 100.5%; in data set [1] (40° C., 28 Days), 99.8%; in data set [1] (setting [6]), 99.6%; in data set [1] (setting [7]) it was 99.5%; in data set [1] (50° C., 7 Days), 99.3%; in data set [1] (50° C., 28 Days), 99.4%. The “Stability study, % expressed” value in data set [1] (70° C., 7 Days, difumarate) is 99.0%; in data set [1] (70° C., 28 Days, difumarate) it was 100.2%; in data set [1] (Light, 7 Days) it was 99.7%; in data set [1] (Light, 28 Days), 98.9%. Also, the Morphological stability result in data set [1] is given as “morphologically stable”. Further, the “Stability of the crystalline form in the presence of water” value in data set [2] is reported as “converted into Form 2”.
On to `CN1CCC(N2CCN(C(=O)[C@H](NC(=O)c3ccc4cc[nH]c4c3)c3ccccc3)CC2)CC1` [chloroform solvate, 1-(indole-6-carbonyl-D-phenylglycinyl)-4-(1-methylpiperidin-4-yl)piperazine], for which the “Stability of the crystalline form in the presence of water” value in data set [2] is recorded as “tended to convert into a gel”.
Take `CN1CCC(N2CCN(C(=O)[C@H](NC(=O)c3ccc4cc[nH]c4c3)c3ccccc3)CC2)CC1.O=C(O)/C=C/C(=O)O.O=C(O)/C=C/C(=O)O` [Form 2, 1-(indole-6-carbonyl-D-phenylglycinyl)-4-(1-methylpiperidin-4-yl)piperazine difumarate]: the “Stability study, % expressed” value was 99.3% in data set [1] (setting [6]); 99.6% in data set [1] (setting [7]); 99.1% in data set [1] (70° C., 7 Days, difumarate); 99.0% in data set [1] (70° C., 28 Days, difumarate). The Morphological stability result in data set [1] is “morphologically stable”.
With `CN1CCC(N2CCN(C(=O)[C@H](NC(=O)c3ccc4cc[nH]c4c3)c3ccccc3)CC2)CC1.Cl` [compound 1, 1-(indole-6-carbonyl-D-phenylglycinyl)-4-(1-methylpiperidin-4-yl)piperazine hydrochloride], the Hygroscopicity result in data set [3] (amorphous and crystalline material) is reported as “hygroscopic”. The “Behaviour of the solid in vapor pressure isotherm determination” value in data set [3] (amorphous solid, microbalance flow system) was “deliquesced”.
As for `CN1CCC(N2CCN(C(=O)[C@H](NC(=O)c3ccc4cc[nH]c4c3)c3ccccc3)CC2)CC1` [1-(indole-6-carbonyl-D-phenylglycinyl)-4-(1-methylpiperidin-4-yl)piperazine], the “Inhibition of Factor Xa” value in data set [4] is “potent and selective inhibitor”. Further, the Oral exposure result in data set [5] is recorded as “good”.

Source of the values: patent publication US20040162295A1, “Pharmaceutical compound” (priority 2001, published 2004).
